Data as given in patent publication US12528837B2, “Aryl substituted polymyxin derivatives” (priority 2018, dated 2026).

How the values were obtained:
HK-2 cells = assay: In vitro renal cell toxicity assay (HK-2); type: cell-based
Summary of the method: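 HK-2 cells seeded 7,500/well, adhered overnight, then exposed to compound for 24 h at 37° C, 5% CO2, with 5% water and 0.5% DMSO. Background-subtracted, vehicle-normalised dose-response fitted with bottom fixed at zero; IC50 reported relative to PMB in the same run, median where repeated.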

[1] = Kidney drug level after subcutaneous dose in mouse; type: in vivo; conditions: mouse, in vivo, sc, 17.2 mg/kg
Summary of the method: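 Mice were euthanised four hours after subcutaneous dosing. Both kidneys were trimmed, weighed, snap-frozen, then homogenised with zirconium oxide beads. After centrifugation (13,000 rpm, 6 °C, 10 min), supernatants were analysed by LC-MS-MS.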

[2] = Renal toxicity in mice, 25 mg/kg sc four doses at 8 hr intervals, biomarkers and histopathology; type: in vivo, mouse; conditions: mice (n=6), sc 25 mg free base/kg
Description: (§1) After the fourth dose animals were transferred into individual metabolic cages and urine collected for 24 hours for determination of urinary biomarkers. After collecting urine mice were euthanised and the kidneys harvested for histopathology.

[3] = Renal toxicity in mice, separate experiment Example 17 vs PMB; type: in vivo, mouse; conditions: sc 25 mg free base/kg, four doses at 8 hr intervals
Description: as §1
In a separate experiment Example 17 was compared with PMB.

[4] = Renal toxicity in Cynomolgus monkey, iv infusion 7 days; type: in vivo
Description: In a separate experiment male monkeys (n=3) were dosed with PMB for the same period at 4 mg/kg/dose. In both experiments control animals were dosed 3 times per day with saline.
At the end of the 7 day period blood was sampled and the serum levels of blood urea nitrogen and creatinine determined as indicators of renal damage.
Kidneys were harvested at the end of the 7 day dosing period and examined microscopically.

K. pneumoniae ATCC 43816 = assay: Neutropenic murine thigh model; type: in vivo; conditions: CD-1 mice thigh, counts at 16 h, PMB in parentheses
Description: After rendering neutropenic (cyclophosphamide 150 mg/kg d-4, 100 mg/kg d-1), CD-1 mice (n=5) were inoculated in each thigh with approx. 10^5 cfu of K. pneumoniae ATCC43816. Mice were dosed IV with appropriate doses of PMB sulphate or test compound (equivalent weight free base) at 2, 6 and 10 h post-infection. At 16 h post-infection mice were euthanised and thighs prepared for colony counts.
(§2) In each case the decrease observed with PMB in the same experiment is shown in parentheses: […]

A. baumannii NCTC13301 = assay: Neutropenic murine lung model; type: in vivo
Description: (§3) After rendering neutropenic (cyclophosphamide 200 mg/kg d-4, 150 mg/kg d-1), CD-1 mice (n=8) were inoculated intranasally with approx. 10^7 cfu per lung of A. baumannii NCTC13301. Mice were dosed SC with PMB sulphate (20 mg/kg) or appropriate doses of test compound (equivalent weight free base) at 2, 6 and 10 h post-infection. At 16 h post-infection mice were euthanised and lungs prepared for colony counts.
as §2

P. aeruginosa ATCC 27853 [5] = assay: Neutropenic murine lung model; type: in vivo; conditions: CD-1 mice lung, counts at 16 h, PMB in parentheses
Description: as §3, with “mg/kg d-1).” for “mg/kg d-1),”, “with 10^4-10^5” for “with approx. 10^7”, “of P. aeruginosa ATCC27853.” for “of A. baumannii NCTC13301.”, “with” for “with PMB sulphate (20 mg/kg) or”, “of PMB sulphate or” for “of”
as §2

A. baumannii IHMA 517303 = type: cell-based; conditions: alone
Description: (§4) MIC values (μg/mL) were determined by broth microdilution under CLSI conditions.

[6] = system: A. baumannii IHMA 851735 (OXA-23); type: cell-based; conditions: OXA-23; alone
Description: as §4

[7] = system: A. baumannii NCTC 13301 (OXA-23); type: cell-based; conditions: OXA-23; alone
Description: as §4

E. coli CDF-1 (MCR-1) = type: cell-based; conditions: MCR-1; alone
Description: as §4

E. coli IHMA 940398 = type: cell-based; conditions: alone
Description: as §4

[8] = system: K. pneumoniae IHMA 520329 (SHV-12, KPC-2); type: cell-based; conditions: SHV-12, KPC-2; alone
Description: as §4

[9] = system: K. pneumoniae IHMA 580884; type: cell-based; conditions: alone
Description: as §4

P. aeruginosa ATCC 27853 [10] = type: cell-based; conditions: alone
Description: as §4

[11] = system: P. aeruginosa IHMA 517175; type: cell-based; conditions: alone
Description: as §4

[12] = system: P. aeruginosa IHMA 644636; type: cell-based; conditions: alone
Description: as §4

[13] = system: E. coli, K. pneumoniae, P. aeruginosa, A. baumannii strains; assay: Synergy with rifampicin across the MIC panel; type: cell-based; conditions: also against strains with reduced susceptibility to polymyxins
Description: as §4

[14] = cynomolgus monkey, in vivo, 4 mg/kg

With Polymyxin B [reference compound] as the substance, how does the “Cytotoxicity (measured IC50 relative to that recorded for Polymyxin B)” value (HK-2 cells) read?
Its value is 1.0.

And the Drug Level in Kidney 4 h [1]?
The Drug Level in Kidney 4 h was 128 µg/g kidney.

What about the Drug Level in Kidney 16 h [1] of the same substance?
Its Drug Level in Kidney 16 h is 18 µg/g kidney.

And the “Kidney histopathology: signs of degeneration or regeneration” value [2]?
Its value is “all 6 animals treated with PMB showed minimal tubular regeneration”.

And the “Basophilic tubules (histopathology)” value ([3]; animals per grade)?
The value was 4 minimal/1 mild.

And the “Tubular degeneration/necrosis (histopathology)” value ([3]; animals per grade)?
The value was 4 normal/1 minimal.

And the “Albumin, elevation compared with vehicle control” value ([3]; urine)?
Its value is 29×.

What about the “Cystatin C, elevation compared with vehicle control” value ([3]; urine) of the same substance?
Its value is 2×.

What about the “KIM-1, elevation compared with vehicle control” value ([3]; urine) of the same substance?
The value was 771×.

What about the “Kidney microscopy: tubular degeneration” value ([4]; Cynomolgus monkey (n=3), 4 mg/kg/dose, 3 times per day, 7 days) of the same substance?
The value was 2 showed mild tubular degeneration and 1 minimal.

And the “AUC0-8 hr, one dosing cycle on day 7” value [4, 14]?
Its value is 117 µg·h/mL.

And the “BUN elevation compared to control animals” value [4, 14]?
The value was 76%.

What about the “Log drop in cfu Compared to Vehicle Control” value (K. pneumoniae ATCC 43816; IV 0.25 mg/kg at 2, 6, 10 h) of the same substance?
Its value is 0.2 (0.2).

And the “Log drop in cfu Compared to Vehicle Control” value (K. pneumoniae ATCC 43816; IV 1 mg/kg at 2, 6, 10 h)?
The value was 5.2.

What about the “Log drop in cfu Compared to Vehicle Control” value (K. pneumoniae ATCC 43816; IV 2 mg/kg at 2, 6, 10 h) of the same substance?
The value was 4.0.

What about the “Log drop in cfu Compared to Vehicle Control” value (K. pneumoniae ATCC 43816; IV 4 mg/kg at 2, 6, 10 h) of the same substance?
Its value is 5.6.

What about the “Log drop in cfu Compared to Vehicle Control” value (K. pneumoniae ATCC 43816; IV […] at 2, 6, 10 h) of the same substance?
Its value is 0.2.

And the “Log drop in cfu Compared to Vehicle Control” value (A. baumannii NCTC13301; CD-1 mice lung, SC 20 mg/kg at 2, 6, 10 h, counts at 16 h, PMB (20 mg/kg) in parentheses)?
The value was 0.

What about the “Efficacy in the model (in words)” value (A. baumannii NCTC13301; neutropenic murine lung model, A. baumannii NCTC13301, 20 mg/kg SC (PMB: maximum tolerated dose)) of the same substance?
Its value is “not efficacious”.

And the “Log drop in cfu Compared to Vehicle Control” value (P. aeruginosa ATCC 27853 [5]; SC 5 mg/kg at 2, 6, 10 h)?
Its value is 0 (0).

What about the “Log drop in cfu Compared to Vehicle Control” value (P. aeruginosa ATCC 27853 [5]; SC 7.5 mg/kg at 2, 6, 10 h) of the same substance?
Its value is 1.0.

And the “Log drop in cfu Compared to Vehicle Control” value (P. aeruginosa ATCC 27853 [5]; SC 10 mg/kg at 2, 6, 10 h)?
The value was 0.7.

What about the “MIC A. baumannii IHMA 517303” value (A. baumannii IHMA 517303) of the same substance?
Its value is >64 µg/mL.

And the “MIC A. baumannii IHMA 851735” value [6]?
The value was 8 µg/mL.

And the “MIC A. baumannii NCTC 13301” value [7]?
The value was 0.25 µg/mL.

What about the “MIC E. coli CDF-1” value (E. coli CDF-1 (MCR-1)) of the same substance?
Its value is 4 µg/mL.

What about the “MIC E. coli IHMA 940398” value (E. coli IHMA 940398) of the same substance?
The value was 16 µg/mL.

And the “MIC K. pneumoniae IHMA 520329” value [8]?
The value was 64 µg/mL.

What about the “MIC K. pneumoniae IHMA 580884” value [9] of the same substance?
Its value is 8 µg/mL.

What about the “MIC P. aeruginosa ATCC 27853” value (P. aeruginosa ATCC 27853 [10]) of the same substance?
The value was 0.5 µg/mL.

What about the “MIC P. aeruginosa IHMA 517175” value [11] of the same substance?
The value was 8 µg/mL.

And the “MIC P. aeruginosa IHMA 644636” value [12]?
The value was 32 µg/mL.

What about the “Synergy with rifampicin (in words)” value [13] of the same substance?
Its value is “strong synergy with rifampicin”.
